The values that follow come from article PMC11802874, “The hypolipidemic effect of MI-883, the combined CAR agonist/ PXR antagonist, in diet-induced hypercholesterolemia model” (Nature Communications, 2025).

Data set [1] deals with T1, human CAR ligand-binding domain (LBD) (Homo sapiens, UniProt Q14994).
T1 construct: purchased ThermoFisher Scientific PV4836
Nature of the data set: TR-FRET CAR coactivator assay (LanthaScreen). It is filed as biochemical.

Data set [2] can be described thus: Metabolic stability in mouse liver S9 fraction. The note with it: male, CD-1, mouse, liver S9 fraction. As for the experimental part: (§1) Shimadzu HPLC system including vacuum degasser, gradient pumps, reverse phase HPLC column, column oven, and autosampler with an API 4000 QTRAP mass spectrometer (Applied Biosystems/MDS Sciex (AB Sciex) with Turbo V ion source and TurboIonspray interface were used. The reference compound midazolam, which is metabolized both by phase I and phase II enzymes, was used. The elimination constant (kel), half-life (t1/2), and intrinsic clearance (Clint) were determined[19] (Table S1).

Data set [3] in a line: Stability in mouse plasma. It is filed as in vitro ADME. The note with it: read-out: Stability in mouse plasma, t1/2. An excerpt: (§2) Plasma protein binding, and stability in human and mouse plasma have been tested as previously described.
In the next data set the test system is HepaRG KO CAR cells. Nature of the data set: RT-qPCR mRNA expression in HepaRG KO CAR cells. It is filed as cell-based, human. The note with it: Phenobarbital 500 μM, CITCO 1 μM, MI 883 1 μM; ctrl = 1.
The subject of data set [4] is primary human hepatocytes (PHH). Nature of the data set: RT-qPCR mRNA expression in 2D primary human hepatocytes.
Text: The cells were cultivated as 2D monolayers according to the manufacturer’s protocol.
(§3) RT-qPCR was used to examine gene expression in 2D and 3D PHH, HepaRG cells, or in mouse liver or intestine (ileum) samples as we have described before[60]–[62].
Data set [5] is described as follows: Mouse plasma protein binding. It is filed as in vitro ADME.
Text: as §2

Another data set concerns the target T2, human CAR variant 3 (Homo sapiens, UniProt Q14994, DEL233-236).
T2 construct: host or cells: HepG2
T2 sequence (Q14994 with tags, fused parts or gaps isoform Q14994-8 DEL233-236): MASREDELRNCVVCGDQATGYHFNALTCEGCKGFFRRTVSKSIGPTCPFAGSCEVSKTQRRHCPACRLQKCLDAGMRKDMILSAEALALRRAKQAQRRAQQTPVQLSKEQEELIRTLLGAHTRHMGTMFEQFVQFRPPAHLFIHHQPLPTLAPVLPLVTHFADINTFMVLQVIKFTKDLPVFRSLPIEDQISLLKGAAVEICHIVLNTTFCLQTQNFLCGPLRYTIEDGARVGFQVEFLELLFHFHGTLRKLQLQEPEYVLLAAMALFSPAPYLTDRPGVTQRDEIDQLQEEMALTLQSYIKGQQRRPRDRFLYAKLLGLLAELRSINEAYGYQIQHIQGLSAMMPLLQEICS
T2 sequence (P19793 1-462 partner): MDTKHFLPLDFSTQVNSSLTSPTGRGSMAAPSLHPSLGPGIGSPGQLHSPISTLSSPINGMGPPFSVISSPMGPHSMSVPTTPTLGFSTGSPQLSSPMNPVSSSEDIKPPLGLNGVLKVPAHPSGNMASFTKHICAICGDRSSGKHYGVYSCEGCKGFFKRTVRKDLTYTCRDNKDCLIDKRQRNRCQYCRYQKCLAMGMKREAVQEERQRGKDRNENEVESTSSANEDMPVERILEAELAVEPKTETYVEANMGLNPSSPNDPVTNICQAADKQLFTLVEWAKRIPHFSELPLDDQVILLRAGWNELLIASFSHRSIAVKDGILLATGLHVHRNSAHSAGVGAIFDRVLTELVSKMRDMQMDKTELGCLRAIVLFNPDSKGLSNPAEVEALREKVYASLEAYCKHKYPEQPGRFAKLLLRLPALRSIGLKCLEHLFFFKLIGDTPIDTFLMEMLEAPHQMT
Briefly: CAR3 luciferase reporter assay (CYP2B6-luc) in HepG2 cells. It is filed as cell-based. As for the experimental part: CAR3 luciferase reporter assay (with CYP2B6-luc) was performed in human hepatocellular carcinoma HepG2 cells as we described[19] For the CAR3 assay (Fig. 1d), a CYP2B6-luc reporter plasmid (originally entitled B-1.6k/PB/XREM) was kindly donated by Dr. Hongbing Wang (University of Maryland School of Pharmacy, Baltimore, MD, USA). All expression vectors are described in Supplementary, Chapter 4).
Cells were treated for 24 h with MI-883 in a range of concentration from 0.1 nM to 30 µM (n = 3). The half maximal effective concentration (EC50) to activate CAR or inhibit PXR (IC50) in the assays was calculated from at least eight points of the dose-response curves using the GraphPad Prism software.

Data set [6] concerns humanized PXR-CAR-CYP3A4/3A7 mice. Nature of the data set: Hepatic induction study in humanized PXR-CAR-CYP3A4/3A7 mice (i.p.). It is filed as in vivo, mouse. The note with it: single agents i.p.: Rif 3×5 mg/kg, CITCO 10 mg/kg two doses, MI-883 10 mg/kg 3 days. The text has this:
In the induction experiments, […] was sampled from the gallbladder.

In another data set the test system is HepaRG cells. Nature of the data set: RT-qPCR mRNA expression in differentiated HepaRG cells. The note with it: Phenobarbital 500 μM, CITCO 1 μM, MI 883 1 μM; ctrl = 1.
The nature of data set [7]: Metabolic stability in human liver S9 fraction. The note with it: human, liver S9 fraction. As for the experimental part: as §1
Supplementary Figure 1. […] Test compounds (1 μM, final DMSO concentration 1%) were incubated at 37 °C with shaking at 100 rpm. Four time points over 120 minutes have been analyzed. The reactions were stopped by adding 420 μL of acetonitrile-water mixture (90:10). Supernatants were analyzed by the HPLC system coupled with a tandem mass spectrometer. The percentage (in % of initial concertation) of the test compounds remaining after incubation in plasma and their half-lives (t1/2) were calculated. […] The stability of the compound was tested in human liver S9 fraction. Cofactors were used such as UDPGA (for glucuronidation), PAPS (for sulfation), and reduced glutathione (for conjugation of GSH). Compounds were tested in triplicate with or without NADPH. Propantheline and midazolam were used as unstable control compounds in the experiments. Data represent the means±S.D. from at least three independent samples.

The next data set deals with GRα (Homo sapiens, UniProt P04150). Nature of the data set: Luciferase reporter gene assay GRα, HepG2. The note with it: ligand: Dexamethasone 100 nM.
Sequence of GRα (P04150 whole entry): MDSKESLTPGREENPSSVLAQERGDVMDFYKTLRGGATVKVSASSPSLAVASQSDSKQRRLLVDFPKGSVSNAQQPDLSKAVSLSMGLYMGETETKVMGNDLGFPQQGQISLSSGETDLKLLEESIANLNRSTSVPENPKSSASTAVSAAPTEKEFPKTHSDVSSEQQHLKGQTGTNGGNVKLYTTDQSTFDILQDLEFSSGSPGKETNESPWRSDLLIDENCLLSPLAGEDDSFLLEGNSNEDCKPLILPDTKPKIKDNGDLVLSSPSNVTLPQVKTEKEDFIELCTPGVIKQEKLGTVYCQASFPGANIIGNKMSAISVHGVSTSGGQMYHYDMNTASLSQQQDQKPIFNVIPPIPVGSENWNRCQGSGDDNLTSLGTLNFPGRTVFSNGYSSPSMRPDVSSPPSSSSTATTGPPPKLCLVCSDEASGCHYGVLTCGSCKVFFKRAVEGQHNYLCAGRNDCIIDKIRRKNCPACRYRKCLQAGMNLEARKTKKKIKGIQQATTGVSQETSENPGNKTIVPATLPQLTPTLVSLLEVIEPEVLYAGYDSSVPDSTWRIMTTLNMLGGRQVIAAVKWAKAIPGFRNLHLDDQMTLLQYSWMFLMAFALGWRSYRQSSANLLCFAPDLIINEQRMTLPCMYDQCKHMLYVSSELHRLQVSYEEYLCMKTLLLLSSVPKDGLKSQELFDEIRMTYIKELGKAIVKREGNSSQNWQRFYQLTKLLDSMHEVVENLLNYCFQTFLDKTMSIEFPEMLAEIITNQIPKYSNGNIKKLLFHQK
Setting [8] is: single agent 5 μM: MI-883, CITCO (5 μM) alone.

Molecules are shown by their SMILES. Values joined by “and” are separate entries in the source; they are usually repeats but may differ in a detail not shown here. Equal values may be shown once.

T1 sequence (Q14994 109-348 isoform Q14994-2 limits assumed, other chains not shown): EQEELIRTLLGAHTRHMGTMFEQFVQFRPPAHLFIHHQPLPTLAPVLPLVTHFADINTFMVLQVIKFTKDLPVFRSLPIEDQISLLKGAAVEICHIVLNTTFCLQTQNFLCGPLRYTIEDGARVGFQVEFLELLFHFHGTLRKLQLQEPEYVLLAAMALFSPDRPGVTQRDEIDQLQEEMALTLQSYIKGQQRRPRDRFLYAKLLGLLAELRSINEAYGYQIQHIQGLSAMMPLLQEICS
Text for GRα: Gal4-LBD constructs of tested nuclear receptors have been used together with pGL4.31[luc2P/GAL4UAS/Hygro] luciferase reporter construct and pRL-TK Renilla expression vector (both from Promega, Hercules, USA) in HepG2 cells transfected with Lipofectamine 2000 or 3000 reagents. For GRα and FXR receptors, full-length expression vectors have been used with pGRE-luc or pFXRE-luc luciferase constructs. For the aryl hydrocarbon receptor (AhR), p1A1-luc construct was used with only pRL-TK vector for transfection normalization. A dual reporter assay (Promega, Hercules, USA) was used to analyze both firefly and Renilla luciferase activities.
Gal4-LBD constructs of tested nuclear receptors have been used together with pGL5-luc luciferase reporter construct and pRL-TK Renilla expression vector in HepG2 cells transfected with Lipofectamine 2000 or 3000 reagents. For GRα and FXR receptors, full-length expression vectors have been used with pGRE-luc or pFXRE-luc luciferase constructs. For the aryl hydrocarbon receptor (AhR), p1A1-luc construct was used with only pRL-TK vector for transfection normalization. […] Bars represent means±S.D. (n=3).
Text for HepaRG KO CAR cells: (§4) HepaRG cells from Biopredic (Rennes, France) were cultivated and differentiated on the 12-well plates. […] Several batches of HepaRG KO CAR (CAR Knockout HepaRG™ Cells, MTOX1012-1VL, RRID:CVCL_B6AA) and PXR Knockout HepaRG™ Cells, MTOX1011-1VL, RRID:CVCL_B6AS) cells have been obtained from Sigma-Aldrich/Merck (Darmstadt, Germany) and cultivated according to the provider’s protocols. […] Experiments with HepaRG KO PXR and HepaRG KO CAR cells have been performed in duplicates at least in two independent experiments.
as §3
(§5) All qRT-qPCR experiments including Trizol reagent (Life Technologies) total RNA isolation, reverse-transcription using a random hexaprimer, and the MMLV Reverse Transcriptase Kit (ThermoFisher Scientific) we have described before^19. qPCR was performed using TaqMan Fast Advanced Master Mix with TaqMan probes (ThermoFisher Scientific). […] The delta-delta method was used for gene expression quantification normalized to at least two reference genes. Three technical replicates were used for each reaction considering the MIQE guidelines. Data are presented as fold induction to vehicle-treated cells/animals.
Text for HepaRG cells: as §4, §3, §5

`Clc1ccc(-c2nc3sccn3c2C=NOCc2ccc(Cl)c(Cl)c2)cc1` [CITCO, 6-(4-chlorophenyl)imidazo[2,1-b][1,3]thiazole-5-carbaldehyde-O-(3,4-dichlorobenzyl)oxime, reference compound]: the “TR-FRET CAR Coactivator assay, mean signal (Fig. 1b)” value is 1 in data set [1] (100pM); 1.176 in data set [1] (1nM); 1.375 in [1] (10nM); 1.960 in data set [1] (30nM); 2.115 in [1] (100nM); 2.111 in [1] (0.5μM). Further, the “TR-FRET CAR Coactivator assay, mean signal (Fig. 1b)” value is 2.154 in data set [1] (1 μM), 2.134 in data set [1] (10 μM) and 2.146 in data set [1] (30 μM). Moreover, the values for the half-life in [2] and in data set [3] were 39.2 min and > 120 min, respectively. The intrinsic metabolic clearance (microsomal CLint) in data set [2] came out at 9 µL/min/mg. Also, the “CYP2B6 mRNA, RT-qPCR, HepaRG KO CAR (Fig. 1f), replicates” value with HepaRG KO CAR cells is 1.15 and 1.05 and 0.84. In data set [4] (1 mM, ctrl = 1), the “CYP2B6 mRNA, RT-qPCR, PHH (Fig. 1g), replicates” value is 10.10 and 18.10 and 7.00. Moreover, in data set [4] (setting [8]), the “CYP2B6 mRNA in PHH 2 donors (Fig. 3c)” value was 11.1246 and 12.1237. Moreover, the “CYP3A4 mRNA in PHH 2 donors (Fig. 3c)” value in [4] (setting [8]) is 2.55 and 3.999. The same compound showed a fraction unbound in [5] of 0.02. The “CAR3 variant activation (Fig. 1d), replicates” value on human CAR variant 3 (concentration 0.01 (unit not given), HepG2, 24 h) was 0.85 and 0.95 and 1.03; at human CAR variant 3 (concentration 0.1 (unit not given)) it was 0.4 and 1 and 3.5; at human CAR variant 3 (concentration 1 (unit not given)), 1.25 and 6.4 and 1.2; on human CAR variant 3 (concentration 10 (unit not given)), 10 and 12.8 and 12; at human CAR variant 3 (concentration 30 (unit not given)), 20.7 and 11.1 and 15.3. Moreover, in data set [6], the “hepatic CYP3A4 mRNA, hPXR/hCAR/CYP3A4/7 mice (Fig. 3e), individual animals” value was 3.5706 and 5.153 and 1.198 and 3.457. For the same compound, the “hepatic Cyp2b10 mRNA, hPXR/hCAR/CYP3A4/7 mice (Fig. 3e), individual animals” value in data set [6] was 6.356 and 6.521 and 7.777 and 9.457. In the data set with HepaRG cells, the “CYP2B6 mRNA, RT-qPCR, HepaRG (Fig. 1f), replicates” value is 6.95 and 5.3 and 5.5. Moreover, the half-life at 2 µM in data set [7] amounted to 22.5 min. This compound also displayed a microsomal CLint at 2 µM in data set [7] of 15 µL/min/mg.

`C[C@@H]1C[C@H]2[C@@H]3CCC4=CC(=O)C=C[C@]4(C)[C@@]3(F)[C@@H](O)C[C@]2(C)[C@@]1(O)C(=O)CO` [Dexamethasone]: the “NRs assays: GRa (relative to ctrl, replicates)” value on GRα was 19.01 and 18.01 and 16.69.
